Here are results for five molecules from ChEMBL document CHEMBL1201862, “PubChem BioAssay data set” (2004).

Calls of active or inactive are those of the source.

Assay [1] has as its target Luciferin 4-monooxygenase (Photinus pyralis, UniProt P08659). Nature of the assay: In vitro luciferase assay using purified luciferase. [Related pubchem assays: 1299, 1270, 1295, 1375, 1287, 1281, 1293, 1291, 1289, 1280, 465, 1364, 1282, 1372, 1365, 1370, 1367, 1366, 1266, 1373, 1292, 1290, 1302, 1371, 1283, 1271, 1294, 1374, 1368, 1369 ].
In assay [2] the test system is HEK293. Put plainly: PMA/Ionomycin induced NF-kB luciferase assay in 293- NF-kB-Luc stable cells. [Related pubchem assays: 1299, 1270, 1295, 1375, 1287, 1281, 1293, 1291, 1289, 1280, 465, 1364, 1282, 1372, 1365, 1370, 1367, 1366, 1269, 1373, 1292, 1290, 1302, 1371, 1283, 1271, 1294, 1374, 1368, 1369 ]. The class given is functional, cell-based. The following applies: Homo sapiens.

The subject of assay [3] is HEK293. Nature of the assay: Cytotoxicity assay in HEK293 cells. [Related pubchem assays (depositor defined):AID1266, AID1269, AID1270, AID1271, AID1280, AID1281, AID1282, AID1283, AID1287, AID1289, AID1290, AID1291, AID1292, AID1293, AID1294, AID1295, AID1299, AID1302, AID1364, AID1365, AID1366, AID1367, AID1369, AID1370, AID1371, AID1372, AID1373, AID1374, AID1375, AID1384 …. The format is functional, cell-based. The conditions noted are these: Homo sapiens.

Assay [4] concerns the target Voltage-dependent T-type calcium channel subunit alpha-1H (Homo sapiens, UniProt O95180). The format is functional.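 Also: channel activity triggered by adding a high calcium stimulation buffer.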
The target of assay [5] is Eukaryotic translation initiation factor 4H (Homo sapiens, UniProt Q15056). Nature of the assay: eIF4H binding inhibition – biochemical, uHTS, fluorescence polarization, translation initiation inhibitor project, primary screen (AID 2012).
In assay [6] the target is Polyadenylate-binding protein 1 (Homo sapiens, UniProt P11940). Put plainly: blockers of PABP interaction with poly(A) – biochemical, fluorescence polarization, […] (AID 2014).
Chain of Polyadenylate-binding protein 1 (P11940 whole entry): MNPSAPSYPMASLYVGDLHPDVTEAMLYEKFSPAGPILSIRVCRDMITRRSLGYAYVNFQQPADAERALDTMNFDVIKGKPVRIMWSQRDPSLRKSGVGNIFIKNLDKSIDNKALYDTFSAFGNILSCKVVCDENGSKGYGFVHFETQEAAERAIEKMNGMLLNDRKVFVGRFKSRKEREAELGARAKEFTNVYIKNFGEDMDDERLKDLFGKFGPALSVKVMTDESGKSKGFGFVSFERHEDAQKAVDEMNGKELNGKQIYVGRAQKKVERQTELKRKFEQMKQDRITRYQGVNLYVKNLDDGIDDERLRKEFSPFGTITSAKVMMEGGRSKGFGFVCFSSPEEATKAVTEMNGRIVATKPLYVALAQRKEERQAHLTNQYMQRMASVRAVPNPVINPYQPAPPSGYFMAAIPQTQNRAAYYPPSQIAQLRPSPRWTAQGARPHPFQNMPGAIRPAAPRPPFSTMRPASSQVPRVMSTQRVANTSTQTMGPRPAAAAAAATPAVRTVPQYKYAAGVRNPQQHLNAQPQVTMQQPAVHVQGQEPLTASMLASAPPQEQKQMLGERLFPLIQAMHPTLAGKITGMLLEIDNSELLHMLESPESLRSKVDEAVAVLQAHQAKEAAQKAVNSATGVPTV
Assay [7] concerns the target Dual specificity protein phosphatase 3 (Homo sapiens, UniProt P51452). Nature of the assay: inhibition constants for human DUSP3 – biochemical, colorimetric, SAR follow-up (AID 2004).
Assay [8] can be described thus: HPDE-C7 pancreatic duct cell viability loss – fluorescence, HTS (AID 430). The format is functional, cell-based. The following applies: Homo sapiens.
A short description of assay [9]: viability loss of HPDE-C7K cells – cell-based, fluorescence, HTS, primary screen (AID 431). The class given is functional. The following applies: Homo sapiens.
The subject of assay [10] is Streptococcus. Nature of the assay: GAS UMAA2166 growth inhibition – luminescence, BacTiterGlo, counter-screen for streptokinase expression inhibitor project, dose response (AID 1915).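 Also: potency for reduction of bacterial viability or growth.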 The class given is functional, organism-based.
Assay [11] deals with X-box-binding protein 1 (Homo sapiens, UniProt P17861). The class given is functional, Cricetulus griseus.
Chain of X-box-binding protein 1 (P17861 whole entry): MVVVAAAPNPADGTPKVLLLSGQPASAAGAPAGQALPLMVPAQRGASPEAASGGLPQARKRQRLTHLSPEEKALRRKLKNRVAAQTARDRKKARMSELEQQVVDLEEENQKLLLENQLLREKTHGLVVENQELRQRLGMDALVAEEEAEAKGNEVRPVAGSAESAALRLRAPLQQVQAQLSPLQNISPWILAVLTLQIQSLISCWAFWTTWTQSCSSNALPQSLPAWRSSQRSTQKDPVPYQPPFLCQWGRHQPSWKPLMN
The test system of assay [12] is Streptococcus sp. 'group A'. Nature of the assay: Streptococcus pyogenes SK(-)GAS viability under kanamycin – luminescence, BacTiterGlo, confirmation, counter-screen for streptokinase expression inhibitor project, dose response (AID 1900). The class given is functional, organism-based.
Assay [13] deals with T1, Heat shock factor protein 1 (Mus musculus, UniProt P38532).
T1 sequence (P38532 whole entry): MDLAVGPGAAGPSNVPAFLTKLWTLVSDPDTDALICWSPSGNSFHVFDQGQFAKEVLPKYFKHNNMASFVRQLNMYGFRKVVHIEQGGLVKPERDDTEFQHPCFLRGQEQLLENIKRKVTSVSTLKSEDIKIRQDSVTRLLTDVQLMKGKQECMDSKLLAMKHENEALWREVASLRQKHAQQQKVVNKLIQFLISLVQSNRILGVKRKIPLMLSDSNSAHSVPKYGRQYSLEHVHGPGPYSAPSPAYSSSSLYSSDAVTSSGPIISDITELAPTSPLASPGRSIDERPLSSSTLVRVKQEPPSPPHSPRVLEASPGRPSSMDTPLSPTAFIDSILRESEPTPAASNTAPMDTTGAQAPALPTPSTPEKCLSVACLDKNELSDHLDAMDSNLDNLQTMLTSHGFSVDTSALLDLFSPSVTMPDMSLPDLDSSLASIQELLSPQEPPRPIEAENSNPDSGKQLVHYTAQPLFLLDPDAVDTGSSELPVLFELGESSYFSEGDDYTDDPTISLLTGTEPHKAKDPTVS
Nature of the assay: decrease of HSF1-responsive luciferase luminescence – cell-based, NIH3T3, dose retest, confirmation (AID 2382).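 Also: NIH3T3 fibroblasts with HSF1-driven luciferase reporter stressed by proteasome inhibitor MG132; luminescence from HSF1-driven luciferase expression after 8 hours of MG132 stress.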 The format is functional.

The target of assay [14] is Caspase-7 (Homo sapiens, UniProt P55210). Put plainly: potency of procaspase-7 enzyme activation – biochemical, absorbance, human, dual procaspase-3/-7 activator project, dose response (AID 504330).
The target of assay [15] is T2, Microphthalmia-associated transcription factor (Homo sapiens, UniProt O75030).
T2 sequence (O75030 whole entry): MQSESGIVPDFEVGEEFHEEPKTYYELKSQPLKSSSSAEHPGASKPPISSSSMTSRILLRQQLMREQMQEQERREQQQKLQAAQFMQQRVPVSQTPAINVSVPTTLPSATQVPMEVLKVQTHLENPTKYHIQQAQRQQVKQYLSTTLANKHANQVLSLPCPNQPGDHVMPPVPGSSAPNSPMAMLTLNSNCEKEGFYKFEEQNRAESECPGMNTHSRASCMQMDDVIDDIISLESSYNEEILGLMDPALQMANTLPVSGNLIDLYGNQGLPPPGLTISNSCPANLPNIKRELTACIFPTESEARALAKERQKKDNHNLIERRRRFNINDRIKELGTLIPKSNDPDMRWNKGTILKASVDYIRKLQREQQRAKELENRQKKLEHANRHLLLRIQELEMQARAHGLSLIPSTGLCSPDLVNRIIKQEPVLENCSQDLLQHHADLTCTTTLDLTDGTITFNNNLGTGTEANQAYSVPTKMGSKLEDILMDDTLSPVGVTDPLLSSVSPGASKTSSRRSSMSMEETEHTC
Nature of the assay: reducers of TRPM1 reporter luminescence, concentration series – cell-based, SK-MEL-5, cherry-picked, set 3, MITF inhibitor project, dose response (AID 493073).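 Also: SK-MEL-5 melanoma cells with luciferase driven by the MITF target TRPM1 promoter.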 The class given is functional.

The target of assay [16] is T3, Caspase-3 (Homo sapiens, UniProt P42574).
T3 sequence (P42574 whole entry): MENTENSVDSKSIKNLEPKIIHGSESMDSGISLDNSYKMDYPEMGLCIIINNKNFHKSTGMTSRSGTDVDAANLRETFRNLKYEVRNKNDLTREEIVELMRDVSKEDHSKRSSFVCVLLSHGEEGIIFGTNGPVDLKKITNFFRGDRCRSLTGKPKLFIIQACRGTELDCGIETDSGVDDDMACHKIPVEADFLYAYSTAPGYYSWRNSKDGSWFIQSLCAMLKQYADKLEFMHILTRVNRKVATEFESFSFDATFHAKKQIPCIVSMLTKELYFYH
Nature of the assay: activators of human procaspase-3 D3A mutant – biochemical, absorbance, PC-3 D3A mutant, counter-screen for dual procaspase-3/7 activator project, dose response (AID 504328).
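For Absolute IC50 (XBP1) in this document: confirmatory dose-response counter-screen serving a CHOP assay.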

Chain of Dual specificity protein phosphatase 3 (P51452 whole entry): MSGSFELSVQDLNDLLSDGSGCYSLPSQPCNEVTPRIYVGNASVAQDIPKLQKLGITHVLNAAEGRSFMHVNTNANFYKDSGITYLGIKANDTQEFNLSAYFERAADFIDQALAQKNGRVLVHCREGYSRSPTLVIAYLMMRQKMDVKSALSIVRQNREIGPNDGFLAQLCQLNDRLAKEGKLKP
Chain of Voltage-dependent T-type calcium channel subunit alpha-1H (O95180 whole entry): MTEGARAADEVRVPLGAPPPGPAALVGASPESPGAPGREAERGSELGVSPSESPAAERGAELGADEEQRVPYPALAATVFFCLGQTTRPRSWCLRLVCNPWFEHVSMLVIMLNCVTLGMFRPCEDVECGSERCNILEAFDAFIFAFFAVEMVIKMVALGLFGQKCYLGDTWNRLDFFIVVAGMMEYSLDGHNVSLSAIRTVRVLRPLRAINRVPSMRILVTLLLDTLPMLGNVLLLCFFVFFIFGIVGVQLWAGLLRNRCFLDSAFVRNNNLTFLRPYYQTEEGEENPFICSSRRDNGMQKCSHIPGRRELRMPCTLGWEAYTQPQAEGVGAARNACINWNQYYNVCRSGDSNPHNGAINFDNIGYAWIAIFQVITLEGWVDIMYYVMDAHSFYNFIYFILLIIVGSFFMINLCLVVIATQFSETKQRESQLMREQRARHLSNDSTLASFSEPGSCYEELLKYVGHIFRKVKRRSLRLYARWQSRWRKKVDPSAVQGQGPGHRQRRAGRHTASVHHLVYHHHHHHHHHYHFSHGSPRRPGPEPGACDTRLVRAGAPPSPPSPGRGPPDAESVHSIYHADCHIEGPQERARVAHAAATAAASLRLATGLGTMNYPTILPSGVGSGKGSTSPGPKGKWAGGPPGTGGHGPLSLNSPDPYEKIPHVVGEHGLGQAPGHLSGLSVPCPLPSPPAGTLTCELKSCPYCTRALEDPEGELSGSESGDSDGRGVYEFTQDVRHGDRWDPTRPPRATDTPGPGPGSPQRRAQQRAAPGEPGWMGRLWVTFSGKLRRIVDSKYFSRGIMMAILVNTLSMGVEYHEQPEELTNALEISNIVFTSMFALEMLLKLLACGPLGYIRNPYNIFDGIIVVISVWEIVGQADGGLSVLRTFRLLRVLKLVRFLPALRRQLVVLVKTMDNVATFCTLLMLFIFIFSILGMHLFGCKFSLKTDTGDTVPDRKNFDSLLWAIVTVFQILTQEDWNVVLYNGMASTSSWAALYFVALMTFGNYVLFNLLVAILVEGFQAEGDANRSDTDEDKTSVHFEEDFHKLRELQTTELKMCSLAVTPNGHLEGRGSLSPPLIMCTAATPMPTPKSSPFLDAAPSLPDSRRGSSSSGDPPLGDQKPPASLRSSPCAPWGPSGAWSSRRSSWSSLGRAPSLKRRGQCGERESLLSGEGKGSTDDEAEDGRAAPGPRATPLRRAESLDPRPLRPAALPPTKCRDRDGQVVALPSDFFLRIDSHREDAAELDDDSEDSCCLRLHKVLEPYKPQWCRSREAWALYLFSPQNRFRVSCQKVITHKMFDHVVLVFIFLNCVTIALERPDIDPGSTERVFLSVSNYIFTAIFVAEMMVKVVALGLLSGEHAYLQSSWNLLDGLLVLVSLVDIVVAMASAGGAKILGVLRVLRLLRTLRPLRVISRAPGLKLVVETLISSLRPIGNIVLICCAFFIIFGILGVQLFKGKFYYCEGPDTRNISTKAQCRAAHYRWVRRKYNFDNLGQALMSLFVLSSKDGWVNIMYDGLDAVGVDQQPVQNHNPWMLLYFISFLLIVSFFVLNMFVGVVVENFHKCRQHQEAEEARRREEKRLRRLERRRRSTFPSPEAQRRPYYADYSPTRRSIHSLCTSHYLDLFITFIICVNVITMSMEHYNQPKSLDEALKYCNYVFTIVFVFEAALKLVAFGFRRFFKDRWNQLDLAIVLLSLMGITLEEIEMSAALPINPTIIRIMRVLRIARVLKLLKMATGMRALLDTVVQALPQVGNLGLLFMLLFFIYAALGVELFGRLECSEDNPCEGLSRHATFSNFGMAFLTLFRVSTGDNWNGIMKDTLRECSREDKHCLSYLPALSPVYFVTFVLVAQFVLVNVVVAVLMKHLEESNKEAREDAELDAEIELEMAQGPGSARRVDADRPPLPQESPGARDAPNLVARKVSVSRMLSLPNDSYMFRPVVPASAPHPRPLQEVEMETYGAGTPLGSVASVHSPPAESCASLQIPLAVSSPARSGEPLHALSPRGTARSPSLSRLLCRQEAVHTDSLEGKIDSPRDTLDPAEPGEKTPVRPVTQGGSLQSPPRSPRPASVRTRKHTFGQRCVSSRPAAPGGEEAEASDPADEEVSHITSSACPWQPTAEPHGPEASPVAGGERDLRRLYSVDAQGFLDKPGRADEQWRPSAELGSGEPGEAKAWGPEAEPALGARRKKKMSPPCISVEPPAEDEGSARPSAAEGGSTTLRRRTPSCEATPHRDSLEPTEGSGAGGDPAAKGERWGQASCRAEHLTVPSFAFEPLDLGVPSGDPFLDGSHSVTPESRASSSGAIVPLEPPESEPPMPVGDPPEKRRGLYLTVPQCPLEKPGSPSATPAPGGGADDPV
Chain of Luciferin 4-monooxygenase (P08659 whole entry): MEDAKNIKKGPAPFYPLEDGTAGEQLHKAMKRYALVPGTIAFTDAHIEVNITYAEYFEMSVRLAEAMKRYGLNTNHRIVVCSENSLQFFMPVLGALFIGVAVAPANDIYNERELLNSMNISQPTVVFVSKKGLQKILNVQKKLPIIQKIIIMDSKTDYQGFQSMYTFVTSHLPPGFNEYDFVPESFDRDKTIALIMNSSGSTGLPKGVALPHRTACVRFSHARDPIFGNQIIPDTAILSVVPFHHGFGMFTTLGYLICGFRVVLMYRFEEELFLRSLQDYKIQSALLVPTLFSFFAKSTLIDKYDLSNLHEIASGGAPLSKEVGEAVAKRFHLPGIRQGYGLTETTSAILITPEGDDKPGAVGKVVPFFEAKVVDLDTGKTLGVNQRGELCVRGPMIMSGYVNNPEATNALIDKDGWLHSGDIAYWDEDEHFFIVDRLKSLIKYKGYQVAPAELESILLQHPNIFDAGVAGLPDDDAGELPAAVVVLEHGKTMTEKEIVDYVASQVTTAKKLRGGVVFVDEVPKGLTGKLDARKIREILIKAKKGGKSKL

On to `Cc1csc(NC(=O)c2sc3nc(-c4cccs4)ccc3c2N)n1`, for which the EC50 in [1] was > 8 µM (not active); in [2], 15.8 µM (not active); in assay [3] it was > 8 µM (inactive); in assay [4] it was 6.54 µM (active).

For the molecule `CN(C)CCNc1c2c(nc3ccccc13)CCC2`, the values for the IC50 in assay [5] and in [6] were 99.1 µM (active) and 32.8 µM (active), respectively.

With `CCOC(=O)c1sc(N/N=C/c2cccc(O)c2)nc1C`, the Ki in assay [7] is 120 µM (inactive).

In the case of `O=C1c2n[nH]c(-c3ccccc3O)c2C(c2cccc(Cl)c2)N1Cc1ccco1` (stereo unspecified), the concentration for a half-maximal effect (EC50) in assay [8] was 7.07 µM (active); in assay [9] it was 9.83 µM (active); in assay [10] it was > 150 µM (inconclusive); in assay [12], 6.78 µM (active). In assay [11], the “Absolute IC50 (XBP1)” value was 10 µM.

For `O=C(Nc1ccc2c(c1)OCCO2)c1coc2ccccc2c1=O`, the EC50 in assay [13] is > 195 µM (not active); in assay [14] it was > 85.3 µM (inactive); in assay [16] it was > 85.3 µM (inactive). Further, the AC50 in assay [15] was 46 µM (active).
